Read-outs that look alike come from different tables or passages of the source.
Biological target: BTK (Homo sapiens, UniProt Q06187)
Assay: BTK occupancy in PBMCs / peripheral blood B lymphocytes of healthy volunteers (active-site probe ELISA)
Type: in vivo
Details: for receptor occupancy at 15 mg: human
Experimental: The presence of inactivated BTK in peripheral blood B lymphocytes was measured using a BTK active-site specific probe in an ELISA assay and expressed as a percentage of pre-study levels.
A Phase 1, single-center, open-label, single-treatment study in healthy volunteers was conducted to assess the BTK occupancy of Formula (II) after multiple-dose administration in healthy adult subjects under fasting conditions. The study primarily focused on characterizing the pharmacodynamics (PD) of Formula (II) by assessing the BTK occupancy profile of Formula (II) in peripheral blood mononuclear cells (PBMCs) and by measuring the expression of lymphocyte B activation markers, CD69 and CD86, during and after multiple oral dose administration of 15 mg daily in healthy subjects. As a secondary objective, the study evaluated the pharmacokinetic (PK) profile, safety, and tolerability after multiple-dose administrations of Formula (II) in the healthy subjects. Moreover, the study determined the effects of Formula (II) on peripheral blood T cells and myeloid-derived suppressor cells (MDSCs).
Forty, healthy adult, non-tobacco using men and women were enrolled in the study. A 15 mg Formula (II) dose (1×15 mg capsule) was administered once daily (QD) to each subject for 7 consecutive days (Days 1 to 7) with a washout period (6 days). PD blood samples were collected from each subject before dosing on Day 1, throughout the study, and up to 144 hours after dosing on Day 7 to characterize Formula (II) PD effects. PK sampling for Formula (II) was also collected before dosing on Day 1, throughout the study, and for 24 hours after dosing on Day 7. Additionally, potential Formula (II) safety issues were monitored through physical examination, vital sign measurements, 12 lead electrocardiograms (ECGs), AEs and clinical laboratory tests.
The occupancy of BTK by Formula (II) was measured in PBMCs with the aid of a biotin tagged Formula (II) analogue probe. The effect of Formula (II) on functional activation of B cells following BCR stimulation (measured via the phorphorylation of BTK and upregulation of CD69 and CD86 activation markers) was also evaluated.

Chain of BTK (Q06187 whole entry): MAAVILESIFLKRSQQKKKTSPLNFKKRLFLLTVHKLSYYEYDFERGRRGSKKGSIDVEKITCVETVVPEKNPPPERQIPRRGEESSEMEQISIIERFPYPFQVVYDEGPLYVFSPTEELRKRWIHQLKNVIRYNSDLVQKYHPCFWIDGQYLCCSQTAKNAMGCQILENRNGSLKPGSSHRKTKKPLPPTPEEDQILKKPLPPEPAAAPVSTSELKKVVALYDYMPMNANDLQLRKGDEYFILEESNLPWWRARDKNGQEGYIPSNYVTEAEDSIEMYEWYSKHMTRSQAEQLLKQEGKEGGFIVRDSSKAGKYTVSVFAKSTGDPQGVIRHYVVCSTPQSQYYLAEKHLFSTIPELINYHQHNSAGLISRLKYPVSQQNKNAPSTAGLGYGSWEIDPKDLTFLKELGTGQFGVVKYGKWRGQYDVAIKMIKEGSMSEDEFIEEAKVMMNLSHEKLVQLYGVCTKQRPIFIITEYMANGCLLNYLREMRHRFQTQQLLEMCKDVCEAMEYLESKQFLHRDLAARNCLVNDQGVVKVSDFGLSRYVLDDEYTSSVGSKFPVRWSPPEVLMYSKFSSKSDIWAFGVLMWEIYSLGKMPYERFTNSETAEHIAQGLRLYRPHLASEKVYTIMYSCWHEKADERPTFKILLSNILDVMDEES

Compound: CC#CC(=O)N1CCC[C@H]1c1nc(-c2ccc(C(=O)Nc3ccccn3)cc2)c2c(N)nccn12 [Formula (II), (S)-4-(8-amino-3-(1-(but-2-ynoyl)pyrrolidin-2-yl)imidazo[1,5-a]pyrazin-1-yl)-N-(pyridin-2-yl)benzamide]
- estimated half-life of occupied BTK (BTK resynthesis t1/2) (15 mg QD, Days 1 and 2, initial post-dose rate): 20 h
- modeled rate of BTK resynthesis (t1/2) (after 7 days dosing with 15 mg, and after a 25 mg BID dose): 119 h
- estimated half-life of occupied BTK (BTK resynthesis t1/2) (after discontinuation of 15 mg QD x 7 days at steady state, later rate): 119 h
- modeled rate of BTK resynthesis (t1/2) (early doses of 15 mg QD, or a single 25 mg QD dose): 20 h
- receptor occupancy at 15 mg (15 mg QD for 7 days, read-out: peak BTK occupancy at steady state): > 90%
- receptor occupancy at 15 mg (15 mg QD, Days 1 and 2, read-out: BTK target occupancy at the end of the dosing interval): ~60%
